Some test systems named below: ACHN; HOP-62; SR; EKVX; HCT-116; SF-268; HT-29; A549; SK-MEL-2; NCI-H460; SK-MEL-28; SNB-19; RXF 393; UACC-257; SF-539; CCRF-CEM; SK-MEL-5.
Common to all, as to assay: DTP human tumour cell line panel, 48 h

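In this assay, cells in 96-well plates receive the compound at five concentrations for 48 hours. Endpoints are linearly interpolated between the surrounding concentrations. GI50 = concentration required for 50% inhibition of growth.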 Activity calls are given as the source filed them. Rule as the data show it: active = GI50 up to about 1.1 µM and inactive = higher.

In the case of `CCOC(=O)Cn1c2ccccc2c(=O)c2cc(C)c(C)c(C#N)c21`, the GI50 in the assay on ACHN is > 100 µM (inactive); in the assay on HOP-62 it was 40.7 µM (inactive); with SR, > 100 µM (inactive); in the assay on EKVX it was > 100 µM (inactive); in the assay on HCT-116, 53.5 µM (inactive); in the assay with SF-268, > 100 µM (inactive). The GI50 with HT-29, in the assay with A549, with SK-MEL-2, in the assay with NCI-H460, with SK-MEL-28 and in the assay with SNB-19 was > 100 µM (inactive) throughout. The GI50 in the assay with RXF 393 was 63.7 µM (inactive); with UACC-257 it was > 100 µM (inactive); in the assay on SF-539, > 100 µM (inactive); in the assay on CCRF-CEM it was > 100 µM (inactive).

Regarding `Nc1c2ccccc2nc2nccnc12`, the GI50 was > 100 µM (inactive) in the assay on ACHN; > 100 µM (inactive) in the assay with HOP-62; > 100 µM (inactive) in the assay with SR; 38.4 µM (inactive) with EKVX; > 100 µM (inactive) in the assay on HCT-116; > 100 µM (inactive) in the assay on SF-268. In addition, the GI50 in the assay on HT-29, in the assay on A549, in the assay on SK-MEL-2, with NCI-H460, in the assay with SK-MEL-28 and in the assay on SNB-19 was > 100 µM (inactive) in each case. Also, the GI50 in the assay on SK-MEL-5, in the assay on RXF 393, in the assay with UACC-257, in the assay with SF-539 and with CCRF-CEM was > 100 µM (inactive) each time.

Take `O=c1/c(=C/c2ccccc2[N+](=O)[O-])sc2nc3ccccc3n12`: the GI50 in the assay on ACHN is > 46.5 µM (inactive); in the assay on HOP-62 it was 42.4 µM (inactive); with SR, 12.2 µM (inactive); in the assay on EKVX, > 100 µM (inactive); in the assay with HCT-116, 21.7 µM (inactive); in the assay on SF-268, 29.9 µM (inactive). Further, the GI50 in the assay on HT-29 is > 46.5 µM (inactive); in the assay on A549, 30.8 µM (inactive); with SK-MEL-2 it was 20.4 µM (inactive); with NCI-H460, 37.8 µM (inactive); with SK-MEL-28, > 46.5 µM (inactive); in the assay with SNB-19, 21.9 µM (inactive). Besides, the GI50 with SK-MEL-5 is 41.6 µM (inactive); in the assay on RXF 393, 28.3 µM (inactive); in the assay with UACC-257 it was 34.8 µM (inactive); in the assay on SF-539, 19.5 µM (inactive); in the assay with CCRF-CEM, 13 µM (inactive).

Turning to `CS/C(c1ccccc1)=[N+](/C)[O-]`, the GI50 was > 100 µM (inactive) in the assay on ACHN; > 100 µM (inactive) in the assay on HOP-62; 24.2 µM (inactive) with SR; > 100 µM (inactive) with EKVX; > 80 µM (inactive) in the assay on HCT-116; > 100 µM (inactive) in the assay with SF-268. For the same compound, the GI50 in the assay on HT-29 is > 75.9 µM (inactive); in the assay with A549 it was > 100 µM (inactive); in the assay with SK-MEL-2 it was > 100 µM (inactive); in the assay with NCI-H460, > 52.2 µM (inactive); with SK-MEL-28, > 100 µM (inactive); in the assay on SNB-19, > 100 µM (inactive). The GI50 is > 100 µM (inactive) with SK-MEL-5; > 100 µM (inactive) in the assay on RXF 393; > 100 µM (inactive) with UACC-257; > 100 µM (inactive) in the assay on SF-539; > 51.2 µM (inactive) with CCRF-CEM.

For the compound `CCc1nc2c([nH]1)C(=O)c1ccccc1C2=O`, the GI50 in the assay with ACHN is 59.8 µM (inactive); with HOP-62, > 100 µM (inactive); with SR it was 38.5 µM (inactive); with EKVX it was 94.4 µM (inactive); in the assay on HCT-116, 27.2 µM (inactive); in the assay on SF-268 it was 70 µM (inactive). Besides, the GI50 in the assay on HT-29 is 43.2 µM (inactive); in the assay on A549, 52.8 µM (inactive); in the assay on SK-MEL-2, > 100 µM (inactive); in the assay on NCI-H460, 43 µM (inactive); in the assay on SK-MEL-28 it was > 100 µM (inactive); with SNB-19, 46.2 µM (inactive). The GI50 in the assay with RXF 393 was > 100 µM (inactive); with UACC-257, 26.5 µM (inactive); in the assay on SF-539, 48.9 µM (inactive); with CCRF-CEM it was 48.5 µM (inactive).

Regarding `Cc1ccc(Nc2cccc3c2C(=O)c2cccc(Nc4ccc(C)cc4S(=O)(=O)O)c2C3=O)c(S(=O)(=O)O)c1`, the GI50 in the assay with ACHN, with HOP-62, in the assay with SR, with EKVX, in the assay with HCT-116 and in the assay with SF-268 was > 100 µM (inactive) throughout. Further, the GI50 in the assay with A549, in the assay on SK-MEL-2, with NCI-H460, in the assay on SK-MEL-28, with SNB-19 and in the assay with SK-MEL-5 was > 100 µM (inactive) each time. In addition, the GI50 in the assay on RXF 393, in the assay with UACC-257, with SF-539 and with CCRF-CEM was > 100 µM (inactive) each time.

On to `Brc1ccc2c(C3CN[C@@H](c4c[nH]c5cc(Br)ccc45)CN3)c[nH]c2c1` (some centres undefined), for which the GI50 was 3.46 µM (inactive) in the assay on ACHN; 3.94 µM (inactive) in the assay on HOP-62; 0.968 µM (active) with SR; 8.97 µM (inactive) in the assay with EKVX; 1.69 µM (inactive) with HCT-116; 4.78 µM (inactive) in the assay on SF-268. In addition, the GI50 in the assay on HT-29 was 2.79 µM (inactive); in the assay with A549, 2.8 µM (inactive); in the assay on SK-MEL-2, 3.02 µM (inactive); with NCI-H460, 1.3 µM (inactive); in the assay with SK-MEL-28 it was 11.3 µM (inactive); in the assay with SNB-19, 9.46 µM (inactive). Moreover, the GI50 was 3.67 µM (inactive) in the assay on SK-MEL-5; 1.55 µM (inactive) in the assay on RXF 393; 11.1 µM (inactive) in the assay with UACC-257; 3.99 µM (inactive) in the assay with SF-539; 2.65 µM (inactive) in the assay on CCRF-CEM.

Regarding `c1ccc(C2OC3(CCC[C@H]4C[C@H]43)O[C@H]2c2ccccc2)cc1` (some centres undefined), the GI50 was 30.3 µM (inactive) in the assay with ACHN; 56.1 µM (inactive) in the assay with HOP-62; 27.2 µM (inactive) with SR; 32.8 µM (inactive) with EKVX; 31.8 µM (inactive) with HCT-116; 73.8 µM (inactive) with SF-268. Besides, the GI50 with HT-29 is 31.3 µM (inactive); in the assay with A549, 43.2 µM (inactive); in the assay on SK-MEL-2, 21.5 µM (inactive); in the assay on NCI-H460, 39.8 µM (inactive); in the assay on SNB-19, 44.4 µM (inactive); in the assay on SK-MEL-5, 25.3 µM (inactive). Further, the GI50 in the assay with RXF 393 was 38.5 µM (inactive); in the assay with UACC-257, 30.9 µM (inactive); in the assay with SF-539, > 100 µM (inactive); in the assay with CCRF-CEM, 22.2 µM (inactive).

Take `CC1C=CC(O)[C@]2(CO)CC3(CCC12)OCCO3` (some centres undefined): the GI50 in the assay on ACHN, in the assay with HOP-62, in the assay with SR, in the assay with EKVX, with HCT-116 and in the assay on SF-268 was > 100 µM (inactive) in each case. In addition, the GI50 in the assay with HT-29, with A549, with SK-MEL-2, in the assay on NCI-H460, in the assay with SK-MEL-28 and with SNB-19 was > 100 µM (inactive) in each case. The GI50 in the assay on SK-MEL-5, with RXF 393, in the assay with UACC-257, with SF-539 and in the assay with CCRF-CEM was > 100 µM (inactive) in each case.

By GI50 is commonly meant the concentration at which growth is held to half of that of the control.

Values taken from ChEMBL document CHEMBL1201862, “PubChem BioAssay data set” (2004).
